The results in this text go back to US7064124B2, “NF-κB inhibitor containing substituted benzoic acid derivative as active ingredient” (Daiichi Suntory Pharma Co., Ltd., priority 2001, dated 2006).

≈ marks a conversion by molar mass, not a printed value.

Usually IC50 stands for the concentration that inhibits the measured activity by half. What is called melting point is the temperature of the solid-liquid transition.

Series [1] has as its system NF-κB. The series is described as follows: NF-κB luciferase reporter assay in A549/NF-κBLuc cells stimulated with IL-1β. The series is classed as cell-based, human. The note with it: Homo sapiens, A549, A549/NF-κBLuc cells; compound added 1 hour before IL-1β, then 3 hours incubation; luciferase activity; read-out: NF-κB Inhibitory Activity (IC50). On the procedure:
Effect on Human Lung Cancer-Derived Cell A549 (A549/NF-κBluc) Containing Stably Introduced Luciferase Plasmid (pNFκB-Luc, Stratagene. U.S.A.) Regulated by NF-κB Binding Sequence
Using Lipofectamine (Lifetech Oriental, Tokyo), pNFκB-Luc and pSV2neo (Clontech, U.S.A.) were co-transfected into the A549 cell (ATCC CCL185) and G418 sulfate (1 mg/ml, Lifetech Oriental) was added to the culture medium to select cells containing stably introduced pNFκB-Luc A549/NF-κBLuc.
The compound obtained in Examples each was added to A549/NF-κBLuc and one hour after that, IL-1β capable of activating NF-κB was added. The incubation was further continued for 3 hours.
NF-κB Inhibitory Activity (IC50) of Substituted Benzoic Acid Derivitives: […]
(Reporter assays use an easily measured gene product as a stand-in for the process of interest.)

The molecule `COC1=C(OC)C(=O)C(Cc2ccc(O)c(C(=O)Nc3ccc(Cl)nc3)c2)=C(C)C1=O` [Example 185, N-(6-Chloropyridin-3-yl)-5-(5,6-dimethoxy-3-methyl-1,4-benzoquinon-2-yl)methyl-2-hydroxybenzamide] had a melting point of 166 to 169 °C. The IC50 in series [1] came out at 11 µg/mL (≈ 24.8 µM). The corresponding values for `COC1=C(OC)C(=O)C(Cc2ccc(O)c(C(=O)Nc3cccnc3N3CCOCC3)c2)=C(C)C1=O` [Example 223, N-(2-Morpholinopyridin-3-yl)-5-(5,6-dimethoxy-3-methyl-1,4-benzoquinon-2-yl)methyl-2-hydroxybenzamide] are 210 to 212.5 °C and 81 µg/mL (≈ 164 µM). In turn, `COC1=C(OC)C(=O)C(Cc2ccc(O)c(C(=O)Nc3ccccc3C(F)(F)F)c2)=C(C)C1=O` [Example 146, N-[5-(5,6-Dimethoxy-3-methyl-1,4-benzoquinon-2-yl)methyl-2-hydroxybenzoyl]-2-trifluoromethylaniline] came in with a melting point of 111 to 114 °C. Besides, the IC50 in series [1] turned out to be 11 µg/mL (≈ 23.1 µM).

Take `COC1=C(OC)C(=O)C(Cc2ccc(O)c(C(=O)Nc3cc(OC)ncn3)c2)=C(C)C1=O` [Example 229, N-(6-Methoxypyrimidin-4-yl)-5-(5,6-dimethoxy-3-methyl-1,4-benzoquinon-2-yl)methyl-2-hydroxybenzamide]: the melting point fell in the range of 209.5 to 211.5 °C. The IC50 in series [1] was found to be 59 µg/mL (≈ 134 µM). The corresponding values for `COC1=C(OC)C(=O)C(Cc2ccc(OC(C)=O)c(C(=O)Nc3ccc(-n4ccnc4)cc3)c2)=C(C)C1=O` [Example 208, N-[5-(5,6-Dimethoxy-3-methyl-1,4-benzoquinon-2-yl)methyl-2-acetoxybenzoyl]-4-(imidazol-1-yl)aniline] are 116.5 to 118.5 °C and 19 µg/mL (≈ 36.9 µM). The corresponding values for `COC1=C(OC)C(=O)C(Cc2ccc(OC(C)=O)c(C(=O)Nc3ccc(OC)nc3)c2)=C(C)C1=O` [Example 180] are 104.5 to 107.5 °C and 23 µg/mL (≈ 47.9 µM). On the same counts, the results for `COC1=C(OC)C(=O)C(Cc2ccc(O)c(C(=O)Nc3ccncc3)c2)=C(C)C1=O.CS(=O)(=O)O` [Example 203, N-(Pyridin-4-yl)-5-(5,6-dimethoxy-3-methyl-1,4-benzoquinon-2-yl)methyl-2-hydroxybenzamide (methanesulfonate)] are 199.5 to 201.5 °C and 30 µg/mL. `COC1=C(OC)C(=O)C(Cc2ccc(OC(C)=O)c(C(=O)Nc3ccccn3)c2)=C(C)C1=O` [Example 155, N-(Pyridin-2-yl)-5-(5,6-dimethoxy-3-methyl-1,4-benzoquinon-2-yl)methyl-2-acetoxybenzamide]: the melting point was in the range of 124 to 126.5 °C. In turn, `COC1=C(OC)C(=O)C(Cc2ccc(O)c(C(=O)Nc3cccc(C(F)(F)F)c3)c2)=C(C)C1=O` [Example 152, N-[5-(5,6-Dimethoxy-3-methyl-1,4-benzoquinon-2-yl)methyl-2-hydroxybenzoyl]-3-trifluoromethylaniline] showed a melting point of 127.5 to 130 °C. Molecule `COC1=C(OC)C(=O)C(Cc2ccc(OC(C)=O)c(C(=O)Nc3ccccc3[N+](=O)[O-])c2)=C(C)C1=O` [Example 153, N-[5-(5,6-Dimethoxy-3-methyl-1,4-benzoquinon-2-yl)methyl-2-acetoxybenzoyl]-2-nitroaniline] registered a melting point of 97.5 to 100 °C. In the case of `COC1=C(OC)C(=O)C(Cc2ccc(OC(C)=O)c(C(=O)Nc3cccc([N+](=O)[O-])c3)c2)=C(C)C1=O` [Example 143, N-[5-(5,6-Dimethoxy-3-methyl-1,4-benzoquinon-2-yl)methyl-2-acetoxybenzoyl]-3-nitroaniline], the melting point lay in the range of 152 to 153.5 °C.

The molecule `COC1=C(OC)C(=O)C(Cc2ccc(OC(C)=O)c(C(=O)NC3CC3)c2)=C(C)C1=O` [Example 159, N-Cyclopropyl-5-(5,6-dimethoxy-3-methyl-1,4-benzoquinon-2-yl)methyl-2-acetoxybenzamide] returned a melting point of 95.5 to 98 °C. On the same count and under the same terms, to `COC1=C(OC)C(=O)C(Cc2cccc(C(=O)Nc3ccc(S(=O)(=O)C(F)(F)F)cc3)c2OC(C)=O)=C(C)C1=O` [Example 175, N-[3-(5,6-Dimethoxy-3-methyl-1,4-benzoquinon-2-yl)methyl-2-acetoxybenzoyl]-4-(trifluoromethylsulfonyl)aniline] belongs 87 to 89 °C.

Molecule `COC1=C(OC)C(=O)C(Cc2ccc(OC(C)=O)c(C(=O)Nc3cc(OC)ccc3OC)c2)=C(C)C1=O` [Example 219, N-[5-(5,6-Dimethoxy-3-methyl-1,4-benzoquinon-2-yl)methyl-2-acetoxybenzoyl]-2,5-dimethoxyaniline] registered a melting point of 118.5 to 120 °C.

Consider `CC(=O)Oc1ccc(CC2=C(C)C(=O)C(C)=C(C)C2=O)cc1C(=O)Nc1cccnc1Cl` [Example 236, N-(2-Chloropyridin-3-yl)-5-(3,5,6-trimethyl-1,4-benzoquinon-2-yl)methyl-2-acetoxybenzamide], for which the melting point was in the range of 130 to 131 °C. Still for that read-out and setting: as for `COC1=C(OC)C(=O)C(Cc2ccc(OCc3cccnc3)c(C(=O)Nc3ccncc3)c2)=C(C)C1=O` [Example 168, N-(Pyridin-4-yl)-5-(5,6-dimethoxy-3-methyl-1,4-benzoquinon-2-yl)methyl-2-(3-pyridylmethyloxy)benzamide], the figure is 116 to 119 °C; as for `COC1=C(OC)C(=O)C(Cc2cccc(C(=O)Nc3ccc(N4CCOCC4)cc3)c2O)=C(C)C1=O` [Example 179, N-[3-(5,6-Dimethoxy-3-methyl-1,4-benzoquinon-2-yl)methyl-2-hydroxybenzoyl]-4-morpholinoaniline], 177.5 to 180.5 °C. The same measure, in the same setting: to `COC1=C(OC)C(=O)C(Cc2ccc(O)c(C(=O)Nc3ccccc3[N+](=O)[O-])c2)=C(C)C1=O` [Example 154, N-[5-(5,6-Dimethoxy-3-methyl-1,4-benzoquinon-2-yl)methyl-2-hydroxybenzoyl]-2-nitroaniline] belongs 155 to 156 °C. On the same count and under the same terms, to `COC1=C(OC)C(=O)C(Cc2cccc(C(=O)Nc3ccc(C(F)(F)F)cc3)c2OC(C)=O)=C(C)C1=O` [Example 165, N-[3-(5,6-Dimethoxy-3-methyl-1,4-benzoquinon-2-yl)methyl-2-acetoxybenzoyl]-4-trifluoromethylaniline] belongs 163 to 166 °C; to `COC1=C(OC)C(=O)C(Cc2cccc(C(=O)Nc3ccc(C(F)(F)F)cc3)c2O)=C(C)C1=O` [Example 166, N-[3-(5,6-Dimethoxy-3-methyl-1,4-benzoquinon-2-yl)methyl-2-hydroxybenzoyl]-4-trifluoromethylaniline], 129 to 131.5 °C; to `COC1=C(OC)C(=O)C(Cc2ccc(C(=O)Nc3ccc(OC)nc3)c(OC(C)=O)c2)=C(C)C1=O` [Example 134, N-(6-Methoxypyridin-3-yl)-4-(5,6-dimethoxy-3-methyl-1,4-benzoquinon-2-yl)methyl-2-acetoxybenzamide], 124.7 to 125.5 °C. The molecule `CC(=O)Oc1ccc(CC2=C(C)C(=O)C(C)=C(C)C2=O)cc1C(=O)Nc1ccc(C(F)(F)F)cc1` [Example 234, N-[5-(3,5,6-Trimethyl-1,4-benzoquinon-2-yl)methyl-2-acetoxybenzoyl]-4-trifluoromethylaniline] came in with a melting point of 180 to 181 °C.
